In US10919916B2, “Boron-containing small molecules” (Bill & Melinda Gates Foundation, priority 2016, dated 2021):
Values after ≈ are worked out from the molar mass of the structure shown. Where two headings read alike, the source gives them in different places.

Key:
Format in all cases: cell-based
[1] = tested on: Staphylococcus aureus, MRSA (ATCC 33591); test: Antibacterial MIC assay (microbroth dilution, CLSI); conditions: read-out: MIC Staphylococcus aureus, MRSA (ATCC 33591)
In short: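 Microbroth dilution per CLSI M07-A10/M100-S25 in cation-adjusted Mueller-Hinton broth, with 3% lysed horse blood added for S. pneumoniae. Inoculum from a 0.5 McFarland direct colony suspension, diluted to 5×10^5 CFU/mL in the well. Compounds were 2-fold serially diluted; MIC read against a growth control.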

[2] = tested on: Streptococcus pneumoniae (ATCC 49619); test: as above
In short: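 CLSI broth microdilution: 2-fold compound dilutions in cation-adjusted Mueller-Hinton broth supplemented with 3% lysed horse blood for S. pneumoniae, inoculum 5×10^5 CFU/mL from a 0.5 McFarland direct colony suspension, with growth control.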

[3] = tested on: Wolbachia pipientis in C6/36 cell line; test: Anti-Wolbachia high-content assay; conditions: read-out: EC50 Wolbachia pipientis in C6/36 cell line
In short: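 Wolbachia-infected C6/36 cells stained 15 minutes, then medium replaced and five fields per well imaged confocally at 60× with fluorescein filters. Each intact cell scored on cytoplasmic texture complexity.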

[4] = microbroth dilution, cation-adjusted Mueller-Hinton broth, 35° C. for 16-20 hours
[5] = ATCC49619, microbroth dilution, 3% lysed horse blood, 35° C. for 16-20 hours, read-out: MIC Streptococcus pneumoniae (ATCC 49619)
[6] = C6/36 (wAlbB) cells, 7 days at 26° C., 50% reduction of Wolbachia

**Q.** How did the MIC [1, 4] turn out when `C=C[C@]1(C)C[C@@H](OC(=O)COc2ccc3c(c2)B(O)OC3CNS(C)(=O)=O)[C@]2(C)[C@H](C)CC[C@]3(CCC(=O)[C@H]32)[C@@H](C)[C@@H]1O` (stereo partly drawn) [Compound 23, (3aR,4R,5R,7S,8S,9R,9aS,12R)-8-hydroxy-4,7,9,12-tetramethyl-3-oxo-7-vinyldecahydro-4,9a-propanocyclopenta[8]annulen-5-yl 2-((1-hydroxy-3-(methylsulfonamidomethyl)-1,3-dihydrobenzo[c][1,2]oxaborol-6-yl)oxy)acetate] was run?
**A.** 0.5 to 2 µg/mL (≈ 0.81 to 3.24 µM)

**Q.** What about the MIC [2, 5] of the same molecule?
**A.** 0.5 to 2 µg/mL (≈ 0.81 to 3.24 µM)

**Q.** And the EC50 [3, 6]?
**A.** 613 nM

**Q.** `C=C[C@]1(C)C[C@@H](OC(=O)COc2ccc3c(c2)B(O)OC3)[C@]2(C)[C@H](C)CC[C@]3(C[C@H](F)C(=O)[C@H]32)[C@@H](C)[C@@H]1O` [Compound 38, (2S,3aR,4R,5R,7S,8S,9R,9aS,12R)-2-fluoro-8-hydroxy-4,7,9,12-tetramethyl-3-oxo-7-vinyldecahydro-4,9a-propanocyclopenta[8]annulen-5-yl 2-((1-hydroxy-1,3-dihydrobenzo[c][1,2]oxaborol-6-yl)oxy)acetate] was tested. Which MIC [1, 4] did it give?
**A.** < 0.25 µg/mL

**Q.** What about the MIC [2, 5] of the same molecule?
**A.** 0.5 to 2 µg/mL (≈ 0.946 to 3.78 µM)

**Q.** What about the EC50 [3, 6] of the same molecule?
**A.** 9 nM

**Q.** For `C=C[C@]1(C)C[C@@H](OC(=O)COc2ccc3c(c2)B(O)NN=C3)[C@]2(C)[C@H](C)CC[C@]3(C[C@H](O)C(=O)[C@H]32)[C@@H](C)[C@@H]1O` [Compound 70, (2S,3aR,4R,5R,7S,8S,9R,9aS,12R)-2,8-dihydroxy-4,7,9,12-tetramethyl-3-oxo-7-vinyldecahydro-4,9a-propanocyclopenta[8]annulen-5-yl 2-((1-hydroxy-1,2-dihydrobenzo[d][1,2,3]diazaborinin-7-yl)oxy)acetate], which MIC [1, 4] is on record?
**A.** 0.5 to 2 µg/mL (≈ 0.929 to 3.71 µM)

**Q.** What about the MIC [2, 5] of the same molecule?
**A.** < 0.25 µg/mL

**Q.** And the EC50 [3, 6]?
**A.** 12 nM

**Q.** `C=C[C@]1(C)C[C@@H](OC(=O)COc2ccc3c(c2F)B(O)NN=C3)[C@]2(C)[C@H](C)CC[C@]3(CCC(=O)[C@H]32)[C@@H](C)[C@@H]1O` [Compound 81, (3aR,4R,5R,7S,8S,9R,9aS,12R)-8-hydroxy-4,7,9,12-tetramethyl-3-oxo-7-vinyldecahydro-4,9a-propanocyclopenta[8]annulen-5-yl 2-((8-fluoro-1-hydroxy-1,2-dihydrobenzo[d][1,2,3]diazaborinin-7-yl)oxy)acetate] was tested. Which MIC [1] did it give?
**A.** < 0.25 µg/mL

**Q.** And the MIC ([2]; ATCC49619, read-out: MIC Streptococcus pneumoniae (ATCC 49619))?
**A.** < 0.25 µg/mL

**Q.** And the EC50 ([3]; C6/36, […])?
**A.** 34 nM

**Q.** With `C=C[C@]1(C)C[C@@H](OC(=O)COc2ccc3c(c2)B(O)N(S(C)(=O)=O)N=C3)[C@]2(C)[C@H](C)CC[C@]3(C[C@H](O)C(=O)[C@H]32)[C@@H](C)[C@@H]1O` [Compound 78, (2S,3aR,4R,5R,7S,8S,9R,9aS,12R)-2,8-dihydroxy-4,7,9,12-tetramethyl-3-oxo-7-vinyldecahydro-4,9a-propanocyclopenta[8]annulen-5-yl 2-((1-hydroxy-2-(methylsulfonyl)-1,2-dihydrobenzo[d][1,2,3]diazaborinin-7-yl)oxy)acetate] as the molecule, how does the MIC [1, 4] read?
**A.** 0.5 to 2 µg/mL (≈ 0.811 to 3.24 µM)

**Q.** And the MIC [2, 5]?
**A.** 0.5 to 2 µg/mL (≈ 0.811 to 3.24 µM)

**Q.** And the EC50 [3, 6]?
**A.** 13 nM

**Q.** With `C=C[C@]1(C)C[C@@H](OC(=O)COc2ccc3c(c2)B(O)N(C(C)=O)N=C3)[C@]2(C)[C@H](C)CC[C@]3(C[C@H](F)C(=O)[C@H]32)[C@@H](C)[C@@H]1O` [Compound 88, (2S,3aR,4R,5R,7S,8S,9R,9aS,12R)-2-fluoro-8-hydroxy-4,7,9,12-tetramethyl-3-oxo-7-vinyldecahydro-4,9a-propanocyclopenta[8]annulen-5-yl 2-((2-acetyl-1-hydroxy-1,2-dihydrobenzo[d][1,2,3]diazaborinin-7-yl)oxy)acetate] as the molecule, how does the MIC [1, 4] read?
**A.** < 0.25 µg/mL

**Q.** And the MIC [2, 5]?
**A.** 0.5 to 2 µg/mL (≈ 0.858 to 3.43 µM)

**Q.** What about the EC50 [3, 6] of the same molecule?
**A.** 4 nM

**Q.** For `C=C[C@]1(C)C[C@@H](OC(=O)COc2ccc3c(c2)B(O)OC3CN(C)C)[C@]2(C)[C@H](C)CC[C@]3(CCC(=O)[C@H]32)[C@@H](C)[C@@H]1O` (stereo partly drawn) [Compound 27, (3aR,4R,5R,7S,8S,9R,9aS,12R)-8-hydroxy-4,7,9,12-tetramethyl-3-oxo-7-vinyldecahydro-4,9a-propanocyclopenta[8]annulen-5-yl 2-((3-((dimethylamino)methyl)-1-hydroxy-1,3-dihydrobenzo[c][1,2]oxaborol-6-yl)oxy)acetate], which MIC [1, 4] is on record?
**A.** < 0.25 µg/mL

**Q.** And the MIC [2, 5]?
**A.** < 0.25 µg/mL

**Q.** And the EC50 [3, 6]?
**A.** 27 nM

**Q.** Which results are given for `C=C[C@]1(C)C[C@@H](OC(=O)COc2ccc3c(c2)B(O)ON=C3)[C@]2(C)[C@H](C)CC[C@]3(C[C@H](F)C(=O)[C@H]32)[C@@H](C)[C@@H]1O` [Compound 99, (2S,3aR,4R,5R,7S,8S,9R,9aS,12R)-2-fluoro-8-hydroxy-4,7,9,12-tetramethyl-3-oxo-7-vinyldecahydro-4,9a-propanocyclopenta[8]annulen-5-yl 2-((1-hydroxy-1H-benzo[d][1,2,6]oxazaborinin-7-yl)oxy)acetate]?
**A.** MIC [1, 4]: 0.5 to 2 µg/mL (≈ 0.923 to 3.69 µM); MIC [2, 5]: 0.5 to 2 µg/mL (≈ 0.923 to 3.69 µM); EC50 [3, 6]: 13 nM
